The text below walks through data of publication PMC6522912, “Evaluation of the published kinase inhibitor set to identify multiple inhibitors of bacterial ATP-dependent mur ligases” (Journal of Enzyme Inhibition and Medicinal Chemistry, 2019).

The target in experiment [1] is E. coli MurF (Escherichia coli, UniProt P11880). Kind of experiment: biochemical. As to conditions: for remaining activity at 100 µM: 0.25 h, read-out: RA [%] at 100 µM MurF; for remaining activity at 100 µM / RA [%] at 100 µM MurF: Table S1, PKIS screening; for RA (%) MurF: Table S3, aza stilbene compounds.
For experiment [2], the target named is E. coli MurD (Escherichia coli, UniProt P14900). Briefly: biochemical. To be noted: for remaining activity at 100 µM: 0.25 h, Table S1, PKIS screening, read-out: RA [%] at 100 µM MurD. The method, boiled down: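 Reaction 15 min at 37 °C, then phosphate detected with Biomol green at 650 nm. Values are residual activity versus 5% DMSO carrier controls.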
The target of experiment [3] is E. coli MurC (Escherichia coli, UniProt P17952). Briefly: Malachite green inhibition assay, MurC. In kind it is biochemical. To be noted: for remaining activity at 100 µM: 0.25 h; for RA (%) MurC: Table S3, aza stilbene compounds.
The mark [4] stands for this setting: Table S1, PKIS screening, read-out: RA [%] at 100 µM MurC.

Where two headings read alike, the source gives them in different places.

Chain of E. coli MurC (P17952 whole entry): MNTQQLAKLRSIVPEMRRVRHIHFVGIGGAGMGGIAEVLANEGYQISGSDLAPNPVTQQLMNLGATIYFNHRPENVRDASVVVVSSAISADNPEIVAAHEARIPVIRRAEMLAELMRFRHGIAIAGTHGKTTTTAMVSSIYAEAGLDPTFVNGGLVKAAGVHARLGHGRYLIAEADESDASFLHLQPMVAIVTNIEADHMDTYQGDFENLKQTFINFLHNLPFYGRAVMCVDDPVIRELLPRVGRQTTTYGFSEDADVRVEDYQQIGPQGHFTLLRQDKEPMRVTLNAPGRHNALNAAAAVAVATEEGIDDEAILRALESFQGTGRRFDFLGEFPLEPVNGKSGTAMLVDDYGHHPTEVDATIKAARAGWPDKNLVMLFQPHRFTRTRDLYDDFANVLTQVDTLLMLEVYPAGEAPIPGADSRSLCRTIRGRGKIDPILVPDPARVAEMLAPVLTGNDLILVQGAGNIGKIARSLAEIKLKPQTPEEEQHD
Chain of E. coli MurD (P14900 whole entry): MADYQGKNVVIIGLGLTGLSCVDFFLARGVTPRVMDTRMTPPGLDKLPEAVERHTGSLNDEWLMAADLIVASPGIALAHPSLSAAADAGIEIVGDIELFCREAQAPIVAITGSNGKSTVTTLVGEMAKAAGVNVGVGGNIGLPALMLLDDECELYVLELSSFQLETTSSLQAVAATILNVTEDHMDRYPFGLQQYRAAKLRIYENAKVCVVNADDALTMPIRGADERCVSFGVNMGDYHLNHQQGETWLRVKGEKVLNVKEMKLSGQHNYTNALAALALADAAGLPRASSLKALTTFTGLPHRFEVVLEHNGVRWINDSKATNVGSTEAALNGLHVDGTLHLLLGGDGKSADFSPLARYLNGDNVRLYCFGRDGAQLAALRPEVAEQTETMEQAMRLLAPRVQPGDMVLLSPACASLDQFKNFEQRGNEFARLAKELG
Chain of E. coli MurF (P11880 whole entry): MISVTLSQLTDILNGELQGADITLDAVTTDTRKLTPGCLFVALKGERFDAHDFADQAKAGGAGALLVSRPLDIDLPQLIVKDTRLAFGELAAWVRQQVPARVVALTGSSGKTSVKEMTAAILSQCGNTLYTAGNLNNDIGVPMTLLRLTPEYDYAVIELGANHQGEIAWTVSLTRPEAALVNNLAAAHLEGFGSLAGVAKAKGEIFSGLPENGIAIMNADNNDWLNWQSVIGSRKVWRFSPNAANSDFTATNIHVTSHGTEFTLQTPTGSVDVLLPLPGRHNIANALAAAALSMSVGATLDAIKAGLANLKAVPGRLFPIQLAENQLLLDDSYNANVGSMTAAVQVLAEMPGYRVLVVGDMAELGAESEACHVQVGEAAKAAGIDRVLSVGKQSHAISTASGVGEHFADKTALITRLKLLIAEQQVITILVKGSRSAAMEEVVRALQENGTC

In the case of `COc1cccc(-n2ncc3c(N/N=C/c4ccc(S(C)(=O)=O)cc4)ncnc32)c1` [GW811168X], the remaining activity at 100 µM in experiment [1] is 35%; in experiment [2], 87%; in experiment [3] (setting [4]), 57%.
Turning to `O=C1Nc2ccc(I)cc2C1=Cc1cc(Br)c(O)c(Br)c1` [GW305074X], the values for the remaining activity at 100 µM in experiment [1], in experiment [2] and in experiment [3] (setting [4]) were 78%, 92% and 100%, respectively.
Turning to `CN(C)c1ccc2c(c1)/C(=C/Nc1ccc(S(N)(=O)=O)cc1)C(=O)N2` [GW416469X], the remaining activity at 100 µM in experiment [1] was determined as 79%; in experiment [2] it was 89%; in experiment [3] (setting [4]) it was 76%.
`O=C1Nc2ccccc2/C1=C/Nc1ccc2[nH]c(=O)[nH]c2c1` [GW284408X]: the remaining activity at 100 µM in experiment [1] amounted to 86%; in experiment [2], 86%; in experiment [3] (setting [4]), 105%.
As to `CCCN1CCC(Oc2cc(Nc3nc(Nc4cccc(F)c4C(N)=O)c4cc[nH]c4n3)c(OC)cc2Cl)CC1` [GSK1713088A], the results for the remaining activity at 100 µM in experiment [1], in experiment [2] and in experiment [3] (setting [4]) were 85%, 54% and 59%, respectively.
Taken in the same sequence, the figures for `CCS(=O)(=O)c1ccc(OC)c(Nc2ncc(-c3cccc(F)c3)o2)c1` [GW621970X] were 89%, 55% and 76%.
Consider `O=S(=O)(CCNCc1ccc(-c2ccc3ncnc(Nc4ccc(OCc5cccc(F)c5)c(Cl)c4)c3c2)o1)c1ccccc1` [GW633459A], for which the remaining activity at 100 µM stood at 84% in experiment [1], 80% in experiment [2] and 100% in experiment [3] (setting [4]).
For `CCc1cccc(CC)c1C=Cc1cncc(C(=O)NC)c1` [Compound 12], the “RA (%) MurF” value in experiment [1] came out at 76%. For the same compound, the “RA (%) MurD” value in experiment [2] is given as 74%. Also, the “RA (%) MurC” value in experiment [3] came to 67%.
For the compound `CC(C)COC(=O)c1ccc2c(c1)/C(=C/Nc1ccc(S(N)(=O)=O)cc1)C(=O)N2` [GW416981X], the remaining activity at 100 µM in experiment [1] was 67%; in experiment [2], 100%; in experiment [3] (setting [4]) it was 60%.
For the compound `COC(=O)c1cncc(C=Cc2c(C)cc(O)cc2C)c1` [Compound 15], in experiment [1], the “RA (%) MurF” value was 81%. The “RA (%) MurD” value in experiment [2] was 69%. The “RA (%) MurC” value in experiment [3] is recorded as 98%.
`Nc1nccc(-c2c(-c3ccc(F)cc3)ncn2C2CCC(O)CC2)n1` (stereo not drawn) [SB-223133]: the remaining activity at 100 µM is 88% in experiment [1], 87% in experiment [2] and 64% in experiment [3] (setting [4]).
In the case of `Cc1ccc(C(=O)NC2CC2)cc1-c1ccc2[nH]ncc2c1` [GW820759X], the results for the remaining activity at 100 µM in experiment [1], in experiment [2] and in experiment [3] (setting [4]) were 86%, 100% and 63%, respectively.
With `NS(=O)(=O)c1ccc(N/N=C2\C(=O)Nc3ccc(Cl)cc32)cc1` [GW280670X], the remaining activity at 100 µM worked out at 76% in experiment [1], 99% in experiment [2] and 100% in experiment [3] (setting [4]).
For `CCn1c(-c2nonc2N)nc2c(C#CC(C)(C)O)ncc(OC3CCNCC3)c21` [GSK619487A], the figures for the remaining activity at 100 µM in experiment [1], in experiment [2] and in experiment [3] (setting [4]) were 100%, 86% and 77%, respectively.
For the compound `Nc1nccc(-c2c(-c3ccc(F)cc3)ncn2C2CCNCC2)n1` [SB-220025-A], in experiment [1], the “RA [%] at 100 µM MurF” value is reported as 96%. For the same compound, in experiment [2], the “RA [%] at 100 µM MurD” value is listed as 99. In experiment [3] (Table S1, PKIS screening), the “RA [%] at 100 µM MurC” value is given as 98%.
Take `CCS(=O)(=O)c1ccc(OC)c(Nc2ncc(-c3cccc(-c4ccccc4F)c3)o2)c1` [GW678313X]: the values for the remaining activity at 100 µM in experiment [1], in experiment [2] and in experiment [3] (setting [4]) were 82%, 64% and 87%, respectively.
Taken in the same sequence, the figures for `CNC(=O)c1cncc(/C=C/c2ccccc2Cl)c1` [GW445017X] were 90%, 87% and 68%.
Taken in the same sequence, the figures for `CN(C)c1cc2c(Nc3ccc4nc(Cc5ccccc5)[nH]c4c3)ncnc2cn1` [GW301888X] were 75%, 80% and 83%.
Taken in the same sequence, the figures for `COc1cc2ncn(-c3cc(OCc4cccs4)c(C(N)=O)s3)c2cc1OC` [GSK312948A] were 79%, 72% and 98%.
As for `CCN(CC)S(=O)(=O)c1ccc(OC)c(Nc2ncc(-c3ccccc3)o2)c1` [GW572401X], the remaining activity at 100 µM in experiment [1] amounted to 82%; in experiment [2], 60%; in experiment [3] (setting [4]) it was 63%.
On the same counts, the results for `O=C1NC(=O)C(c2ccc(Cl)cc2)=C1Nc1ccc(Cl)c(C(=O)O)c1` [SB-360741] are 83%, 86% and 84%.
On the same counts, the results for `COc1ccc2[nH]c3c4[nH]c5ccc(OC)cc5c4c4c(c3c2c1)C(=O)NC4=O` [GW296115X] are 100%, 87% and 100%.
As for `N#Cc1c(NC(=O)c2ccccc2F)sc2c1CCCC2` [GW572738X], the figures for the remaining activity at 100 µM in experiment [1], in experiment [2] and in experiment [3] (setting [4]) were 100%, 91% and 88%, respectively.
`NS(=O)(=O)c1cccc(-c2ccc3c(NC(=O)C4CC4)n[nH]c3c2)c1` [SB-741905]: the results for the remaining activity at 100 µM in experiment [1], in experiment [2] and in experiment [3] (setting [4]) were 88%, 98% and 72%, respectively.
For the compound `NS(=O)(=O)c1ccc(NN=C2C(=O)Nc3ccc(C(=O)NCCCn4ccnc4)cc32)cc1` [GW290597X], the figures for the remaining activity at 100 µM in experiment [1], in experiment [2] and in experiment [3] (setting [4]) were 100%, 92% and 63%, respectively.
Consider `COc1ccccc1Nc1ncc(-c2ccccc2)o1` [GW577921A], for which the remaining activity at 100 µM turned out to be 76% in experiment [1], 84% in experiment [2] and 71% in experiment [3] (setting [4]).
For `FC(F)(F)c1ccc(-c2nn3ncccc3c2-c2ccnc(Nc3ccc4c(c3)OCCO4)n2)cc1` [GW828525X], the remaining activity at 100 µM turned out to be 47% in experiment [1]; 90% in experiment [2]; 21% in experiment [3] (read-out: RA [%] at 100 µM MurC, Table S1, PKIS screening).
As for `CS(=O)(=O)CCNCc1ccc(-c2ccc3ncnc(Nc4ccc(OCc5cccc(C(F)(F)F)c5)cc4)c3c2)o1` [GW567808A], the remaining activity at 100 µM in experiment [1] stood at 100%; in experiment [2] it was 34%; in experiment [3] (setting [4]), 56%.
Consider `Nc1nccc(-c2c(-c3ccc(F)cc3)ncn2CCCN2CCOCC2)n1` [SB-216385], for which the figures for the remaining activity at 100 µM in experiment [1], in experiment [2] and in experiment [3] (setting [4]) were 98%, 96% and 77%, respectively.
For `O=C(Nc1n[nH]c2nc(-c3ccc(O)cc3)c(Br)cc12)C1CC1` [SB-725317], the remaining activity at 100 µM in experiment [1] worked out at 89%; in experiment [2], 96%; in experiment [3] (setting [4]), 84%.
On the same counts, the results for `NS(=O)(=O)c1ccc(N/N=C2\C(=O)Nc3ccc(C(=O)NCCc4c[nH]cn4)cc32)cc1` [GW300660X] are 96%, 90% and 58%.
As for `COc1cc2ncnc(Nc3ccc(C)c(O)c3)c2cc1OC` [GW410563A], the remaining activity at 100 µM in experiment [1] was 100%; in experiment [2] it was 92%; in experiment [3] (setting [4]), 60%.
As for `CN1CCC(n2cnc(-c3ccc(F)cc3)c2-c2ccnc(Nc3ccccc3)n2)CC1` [SB-236687], the remaining activity at 100 µM amounted to 67% in experiment [1], 90% in experiment [2] and 79% in experiment [3] (setting [4]).
Regarding `O=C1Nc2ccccc2/C1=C/Nc1ccc(-n2cncn2)cc1` [GW301789X], the remaining activity at 100 µM in experiment [1] stood at 75%; in experiment [2], 91%; in experiment [3] (setting [4]), 64%.
On to `COc1ccc(C2=C(N3CCc4ccccc43)C(=O)NC2=O)cc1` [SB-361058], for which the remaining activity at 100 µM in experiment [1] worked out at 97%; in experiment [2] it was 100%; in experiment [3] (setting [4]) it was 100%.
Turning to `CC(C)c1ccc(Nc2nccc(-c3cnn4ncccc34)n2)cc1` [GW805758X], the remaining activity at 100 µM is 68% in experiment [1], 57% in experiment [2] and 64% in experiment [3] (setting [4]).
With `CN1CCC(C(=O)Nc2n[nH]c3nc(-c4ccc(O)cc4)c(Br)cc23)CC1` [SB-732881], the results for the remaining activity at 100 µM in experiment [1], in experiment [2] and in experiment [3] (setting [4]) were 90%, 84% and 71%, respectively.
As to `O=C(Nc1ccc(Oc2ccc3nc(NC(=O)c4ccccc4)[nH]c3c2)cc1)Nc1cc(C(F)(F)F)ccc1F` [GW709042A], the remaining activity at 100 µM amounted to 100% in experiment [1], 95% in experiment [2] and 100% in experiment [3] (setting [4]).
Take `CN1CCC(C(=O)Nc2n[nH]c3nnc(-c4ccccc4)cc23)CC1.Cl` [SB-678557-A]: the “RA [%] at 100 µM MurF” value in experiment [1] was determined as 95%. The “RA [%] at 100 µM MurD” value in experiment [2] worked out at 76. Further, the “RA [%] at 100 µM MurC” value in experiment [3] (Table S1, PKIS screening) came out at 74%.
Regarding `CCOc1ccc2c(-c3ccnc(Nc4cc(OC)cc(C(F)(F)F)c4)n3)cnn2n1` [GW807982X], the results for the remaining activity at 100 µM in experiment [1], in experiment [2] and in experiment [3] (setting [4]) were 50%, 78% and 55%, respectively.
On the same counts, the results for `O=C(Nc1n[nH]c2cc(-c3cc(F)ccc3F)ccc12)C1CC1` [SB-735465] are 82%, 80% and 59%.
